Tested on: L929 mouse fibroblast cells
Experiment: Cytotoxicity assay (MTT)
Format: cell-based
Conditions: 24 h, 62.5 μg/ml
Description: The toxicity of P7 peptide on L929 mouse fibroblast cells was assessed by a dye reduction assay using 3-(4,5 dimethylthiazol-2-yl)-2,5-diphenyltetrazolium bromide (MTT). Briefly, 3 × 10^4 L929 cells in RPMI 1640 [supplemented with 10% (v/v) fetal bovine serum, 0.2% (w/v) sodium bicarbonate, 2 mM L-glutamine, 100 U/ml penicillin and […] streptomycin] were seeded into each well of 96-well plates and then incubated in a humidified atmosphere with 5% CO2 at 37°C for 24 h. After the incubation period, the peptide was added to obtain final concentrations of 0.98–250 μg/ml; plates were incubated at 37°C under 5% CO2 for 24 h. RPMI 1640 medium with and without cells were used as positive and negative controls, respectively. After incubation, a final concentration of 0.5 mg/ml MTT (Sigma-Aldrich, MO, United States) was added and incubated at 37°C under 5% CO2 for 4 h. Then, the supernatants were removed from each well and 150 μl of dimethyl sulfoxide (DMSO) was added and mixed thoroughly to solubilize the formazan crystals. Subsequently, absorbance was measured at 570 nm using a microplate reader. The cell viability (%) was calculated according to the formula:
%Cellviability=ODTreated-ODBlank/ODUntreated-ODBlank×100

In the case of CC[C@H](C)[C@H](NC(=O)CN)C(=O)NCC(=O)N[C@@H](C)C(=O)N[C@H](C(=O)N[C@@H](CC(C)C)C(=O)N[C@@H](CCCCN)C(=O)N[C@H](C(=O)N[C@@H](CC(C)C)C(=O)N[C@H](C(=O)N[C@H](C(=O)NCC(=O)N[C@@H](CC(C)C)C(=O)N1CCC[C@H]1C(=O)N[C@@H](C)C(=O)N[C@@H](CC(C)C)C(=O)N[C@H](C(=O)N[C@@H](CO)C(=O)N[C@@H](Cc1c[nH]c2ccccc12)C(=O)N[C@H](C(=O)N[C@@H](CCCCN)C(=O)N[C@@H](CCCNC(=N)N)C(=O)N[C@@H](CCCCN)C(=O)N[C@@H](CCCNC(=N)N)C(=O)N[C@@H](CCC(N)=O)C(=O)N[C@@H](CCC(N)=O)C(N)=O)[C@@H](C)CC)[C@@H](C)CC)[C@@H](C)O)[C@@H](C)O)C(C)C)C(C)C [Melittin, reference compound], the Cell viability is reported as “less than 10%”.

Source: paper PMC7838546, “A Thermostable, Modified Cathelicidin-Derived Peptide With Enhanced Membrane-Active Activity Against Salmonella enterica serovar Typhimurium” (Frontiers in Microbiology, 2021)
